Measured values from PubChem BioAssay AID504839 (Johns Hopkins Ion Channel Center, 2011).

Biological target: Potassium voltage-gated channel subfamily KQT member 2 (Rattus norvegicus) (UniProt O88943)
Test: PubChem AID 504839
Settings: KCNQ2-CHO cells, automated patch clamp current

Chain of Potassium voltage-gated channel subfamily KQT member 2 (Rattus norvegicus) (O88943 whole entry, looked up): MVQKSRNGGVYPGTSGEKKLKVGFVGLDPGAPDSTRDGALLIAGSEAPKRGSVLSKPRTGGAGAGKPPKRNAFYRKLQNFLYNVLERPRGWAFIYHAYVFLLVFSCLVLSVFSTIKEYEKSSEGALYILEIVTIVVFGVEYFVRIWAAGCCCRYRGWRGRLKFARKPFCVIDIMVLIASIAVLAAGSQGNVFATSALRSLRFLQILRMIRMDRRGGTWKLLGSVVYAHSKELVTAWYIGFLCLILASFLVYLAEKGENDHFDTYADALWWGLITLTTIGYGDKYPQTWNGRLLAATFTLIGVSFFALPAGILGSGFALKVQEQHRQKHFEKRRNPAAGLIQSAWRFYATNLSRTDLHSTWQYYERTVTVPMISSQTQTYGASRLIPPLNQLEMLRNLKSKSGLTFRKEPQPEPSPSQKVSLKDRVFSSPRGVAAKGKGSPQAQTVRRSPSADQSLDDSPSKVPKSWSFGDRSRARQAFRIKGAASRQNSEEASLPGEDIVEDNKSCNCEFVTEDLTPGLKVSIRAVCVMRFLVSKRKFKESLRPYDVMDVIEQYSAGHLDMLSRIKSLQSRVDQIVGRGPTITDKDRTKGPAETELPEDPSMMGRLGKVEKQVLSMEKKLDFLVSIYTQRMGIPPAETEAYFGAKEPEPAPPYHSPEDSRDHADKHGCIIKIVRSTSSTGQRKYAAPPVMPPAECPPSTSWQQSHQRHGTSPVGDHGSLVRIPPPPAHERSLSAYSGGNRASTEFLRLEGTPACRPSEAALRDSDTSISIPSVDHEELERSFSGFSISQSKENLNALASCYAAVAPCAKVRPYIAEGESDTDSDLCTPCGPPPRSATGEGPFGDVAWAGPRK

IC50: 0.16 µM
SMILES: CCC(C(=O)Nc1ccccc1N1CCCC1)c1ccccc1 (stereo unspecified)
